Consider 9 compounds from patent US20130338178A1, “SIRTUIN MODULATORS AS INHIBITORS OF CYTOMEGALOVIRUS” (THE TRUSTEES OF PRINCETON UNIVERSITY, priority 2011, published 2013).

Where two headings read alike, the source gives them in different places. Peptide text beside a SMILES is read from it.

Data set [1] relates to tumor necrosis factor alpha (TNFα) release. The note with it: cited from earlier work.
The test system of a further data set is HCMV pUL99. In words: Late viral pUL99 expression and cytopathic effect in HCMV infected MRC5 cells. Format: cell-based, human cytomegalovirus.
A further data set concerns the target T1, Sirt5 (Homo sapiens, UniProt Q9NXA8).
T1 sequence (Q9NXA8 37-310): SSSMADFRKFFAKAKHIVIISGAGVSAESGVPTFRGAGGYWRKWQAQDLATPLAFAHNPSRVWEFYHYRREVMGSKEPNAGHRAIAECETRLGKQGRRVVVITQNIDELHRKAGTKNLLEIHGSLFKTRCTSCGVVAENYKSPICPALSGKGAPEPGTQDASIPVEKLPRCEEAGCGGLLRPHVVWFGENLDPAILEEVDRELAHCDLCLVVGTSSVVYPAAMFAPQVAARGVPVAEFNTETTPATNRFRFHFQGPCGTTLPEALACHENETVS
To be noted: cited from earlier work.

In data set [2] the target is T2, SIRT2 (Homo sapiens, UniProt Q8IXJ6).
T2 sequence (Q8IXJ6 1-389): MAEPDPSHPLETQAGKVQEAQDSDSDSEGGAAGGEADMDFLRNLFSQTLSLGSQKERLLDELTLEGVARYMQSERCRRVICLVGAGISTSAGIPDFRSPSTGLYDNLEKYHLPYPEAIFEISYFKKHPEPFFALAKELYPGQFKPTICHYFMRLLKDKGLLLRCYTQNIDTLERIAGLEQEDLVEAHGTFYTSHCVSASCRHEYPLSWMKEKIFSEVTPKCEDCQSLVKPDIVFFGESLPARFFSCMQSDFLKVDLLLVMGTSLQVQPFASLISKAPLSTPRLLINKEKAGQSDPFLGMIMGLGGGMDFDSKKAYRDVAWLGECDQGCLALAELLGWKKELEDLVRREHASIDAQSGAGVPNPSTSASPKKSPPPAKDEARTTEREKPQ
To be noted: cited from earlier work.

The next data set concerns the target Sirt6 (Homo sapiens, UniProt Q8N6T7). The note with it: cited from earlier work.
A further data set deals with Hst2 (Saccharomyces cerevisiae, UniProt P53686). The note with it: cited from earlier work.
Hst2, sequence (P53686 whole entry): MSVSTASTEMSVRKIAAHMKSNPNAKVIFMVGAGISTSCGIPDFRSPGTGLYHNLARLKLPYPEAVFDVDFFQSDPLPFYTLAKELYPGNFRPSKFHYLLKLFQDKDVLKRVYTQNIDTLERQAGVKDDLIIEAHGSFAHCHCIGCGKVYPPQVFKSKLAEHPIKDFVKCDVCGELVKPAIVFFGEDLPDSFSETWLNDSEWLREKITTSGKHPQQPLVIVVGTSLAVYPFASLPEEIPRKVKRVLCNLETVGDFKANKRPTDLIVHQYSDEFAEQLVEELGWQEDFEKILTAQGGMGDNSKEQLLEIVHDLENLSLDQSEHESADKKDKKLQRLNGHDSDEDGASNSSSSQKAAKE
For data set [3], the target named is T3, SIRT1 (Homo sapiens, UniProt Q96EB6).
T3 sequence (Q96EB6 1-747): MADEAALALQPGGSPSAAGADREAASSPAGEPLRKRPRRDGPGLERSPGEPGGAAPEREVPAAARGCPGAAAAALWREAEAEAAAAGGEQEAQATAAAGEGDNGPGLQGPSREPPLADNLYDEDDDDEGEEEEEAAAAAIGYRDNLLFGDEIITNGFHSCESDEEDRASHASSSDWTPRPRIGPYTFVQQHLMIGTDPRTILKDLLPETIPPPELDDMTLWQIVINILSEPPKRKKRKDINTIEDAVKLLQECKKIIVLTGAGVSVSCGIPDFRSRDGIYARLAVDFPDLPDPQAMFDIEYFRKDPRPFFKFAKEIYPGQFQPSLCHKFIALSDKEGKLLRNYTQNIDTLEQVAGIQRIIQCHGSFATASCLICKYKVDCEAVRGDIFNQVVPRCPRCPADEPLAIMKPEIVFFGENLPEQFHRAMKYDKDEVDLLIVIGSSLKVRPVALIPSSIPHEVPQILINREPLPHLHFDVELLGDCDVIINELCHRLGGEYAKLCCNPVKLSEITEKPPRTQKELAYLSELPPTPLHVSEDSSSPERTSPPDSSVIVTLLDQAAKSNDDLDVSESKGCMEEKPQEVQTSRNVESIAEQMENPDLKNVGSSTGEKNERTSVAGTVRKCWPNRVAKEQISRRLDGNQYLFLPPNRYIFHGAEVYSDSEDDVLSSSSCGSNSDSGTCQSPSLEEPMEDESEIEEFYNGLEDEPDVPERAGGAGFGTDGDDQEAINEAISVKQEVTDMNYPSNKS
To be noted: cited from earlier work.

In data set [4] the target is T2, SIRT2. The note with it: 100 μM; cited from earlier work.
Data set [5] deals with HCMV. The experiment in a line: Yield of infectious HCMV from drug-treated infected MRC5 fibroblasts. To be noted: for reduction of the yield of infectious HCMV by a factor of: MRC5, 10% fetal calf serum, added 4 hours after infection. It counts as cell-based, human cytomegalovirus.
Data set [6] addresses T3, SIRT1. The note with it: cited from earlier work. The source holds these as a separate data set.
The subject of data set [7] is Influenza A (WSN/33/A, PR8). Format: cell-based, influenza A virus.
The subject of data set [8] is HCMV. Format: cell-based, human cytomegalovirus.
The target in data set [9] is T2, SIRT2. To be noted: cited from earlier work. This is another data set of the same source.
Data set [10] has as its target T3, SIRT1. The note with it: cited from earlier work. This is another data set of the same source.
The next data set has as its target T4, SIRT3 (Homo sapiens, UniProt Q9NTG7).
T4 sequence (Q9NTG7 1-399): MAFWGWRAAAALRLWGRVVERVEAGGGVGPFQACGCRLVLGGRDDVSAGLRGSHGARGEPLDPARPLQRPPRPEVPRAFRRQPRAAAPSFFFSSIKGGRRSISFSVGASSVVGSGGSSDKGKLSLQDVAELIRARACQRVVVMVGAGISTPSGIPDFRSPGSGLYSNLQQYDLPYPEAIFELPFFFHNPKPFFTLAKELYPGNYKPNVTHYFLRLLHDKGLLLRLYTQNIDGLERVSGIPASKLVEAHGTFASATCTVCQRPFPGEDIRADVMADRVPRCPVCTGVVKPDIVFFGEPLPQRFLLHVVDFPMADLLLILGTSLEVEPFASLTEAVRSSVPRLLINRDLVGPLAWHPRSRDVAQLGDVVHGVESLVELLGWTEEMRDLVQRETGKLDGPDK
The note with it: cited from earlier work.

For data set [11] the following is noted: mice; cited from earlier work.
For data set [12], the system named is Burkitt lymphoma xenografts. The note with it: mouse, in vivo; cited from earlier work.

Sirt6, sequence (Q8N6T7 whole entry): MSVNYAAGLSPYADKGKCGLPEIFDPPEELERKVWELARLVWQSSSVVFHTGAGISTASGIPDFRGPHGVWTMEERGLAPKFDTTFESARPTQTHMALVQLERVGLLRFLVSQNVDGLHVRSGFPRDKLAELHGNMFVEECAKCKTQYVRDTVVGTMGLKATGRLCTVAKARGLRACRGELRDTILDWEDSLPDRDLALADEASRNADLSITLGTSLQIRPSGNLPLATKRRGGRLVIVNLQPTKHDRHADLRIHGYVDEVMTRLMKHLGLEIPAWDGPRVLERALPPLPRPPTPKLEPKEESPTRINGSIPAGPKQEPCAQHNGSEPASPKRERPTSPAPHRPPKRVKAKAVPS

Turning to `Nc1c(S(=O)(=O)c2ccccc2)c2nc3ccccc3nc2n1-c1ccc(F)cc1` [CAY10602], the “suppression of TNFα release, extent relative to resveratrol” value in [1] is reported as 10 fold. Further, the pUL99 expression result in the data set on HCMV pUL99 (25 μM) was “almost completely inhibited”.

Regarding `CN1CC(C(=O)NC2(C)OC3(O)C4CCCN4C(=O)C(Cc4ccccc4)N3C2=O)C=C2c3cccc4[nH]cc(c34)CC21` (stereo not shown) [CSC21], the Sirt5 effect entry on Sirt5 was “inhibition”. For the same compound, at SIRT2 [2], the Sirt2 effect result is on record as “inhibition”. The Sirt6 effect result on Sirt6 is “inhibition”.

For `O=S(=O)(c1cccc(C(F)(F)F)c1)N1c2ccccc2-n2cccc2C1c1cccnc1` (stereo not shown) [CSC38], on Sirt5, the Sirt5 effect entry is “activation”. Besides, the Sirt2 effect entry on SIRT2 [2] is listed as “inhibition”. Moreover, the Sirt6 effect entry on Sirt6 was “activation”.

With `Cc1ccc2[nH]c3c(c2c1)CCCC3C(N)=O` (stereo not shown) [Indole 2], the IC50 on Hst2 is 14.5 ± 0.6 µM; at SIRT1 [3] it was 640 ± 60 nM.

In the case of `Oc1ccc(C=Cc2cc(O)cc(O)c2)cc1` [Resveratrol], the “activation of SIRT2” value at SIRT2 [4] is “does not activate”. Further, the entries for the “reduction of the yield of infectious HCMV by a factor of” value in the data set with HCMV [5] (50 μM) and with HCMV [5] (100 μM) were more than 18 fold and more than 100 fold, respectively. Further, the “cytopathic effect of HCMV” value in the data set on HCMV pUL99 (HCMV infected MRC5 cells, added 4 hours after infection, data not shown) is “inhibited”. Moreover, the “expression of late viral pUL99” value in the data set with HCMV pUL99 (dose dependent, data not shown) was “substantially reduced”. The entries for the “increase of SIRT1 activity” value at SIRT1 [6] (46 μM) and at SIRT1 [6] (100 μM) were 1.5 fold and 13 fold, respectively. Also, the “EC1.5: The concentration to activate 1.5-fold” value on SIRT1 [6] is 46 µM.

Turning to `CC(C(=O)Nc1cccc(/N=C/c2c(O)ccc3ccccc23)c1)c1ccccc1` (stereo not shown) [Salermide], the “production of infectious Influenza A progeny” value in [7] was “inhibited”. In addition, in the data set with HCMV [8], the “inhibition of HCMV production by a factor of” value is reported as “about 5” and the “inhibition of the production of HCMV progeny by a factor of” value was approximately 80. Besides, the “production of infectious HCMV” value in the data set with HCMV [5] (FIG. 5) is on record as “blocked”.

Turning to `CC(C)CCCCCCCCC[C@@H]1CC(=O)NC(CCC(=O)O)C(=O)N[C@@H](CC(C)C)C(=O)N[C@H](CC(C)C)C(=O)N[C@@H](C(C)C)C(=O)N[C@@H](CC(=O)O)C(=O)N[C@H](CC(C)C)C(=O)N[C@@H](CC(C)C)C(=O)O1` (stereo partly drawn) [Surfactin, surfactin] (HELM PEPTIDE1{[O=C(O)CCC(N[*:1])C(=O)[*:2]].L.[dL].V.D.[dL].L}|CHEM1{[CC(C)CCCCCCCCC[C@H](CC(=O)[*:1])O[*:2]]}$PEPTIDE1,CHEM1,1:R1-1:R1|PEPTIDE1,CHEM1,7:R2-1:R2$$$V2.0), the IC50 at Hst2 was more than 700 µM; on SIRT1 [3] it was more than 600000 nM.

As to `CC(=O)Nc1ccc(NC(=S)NC(=O)c2ccc(C(C)(C)C)cc2)cc1` [Tenovin 1], the IC50 on SIRT2 [9] was 10 µM; at SIRT1 [10], 21 µM; on SIRT3, 67 µM.

Regarding Cambinol, the IC50 at Hst2 is more than 1000 µM. Also, in [7], the “inhibition of influenza A in combination with oseltamivir” value is “cooperated with oseltamivir” and the “production of infectious Influenza A progeny” value is reported as “inhibited”. The tolerability result in [11] is reported as “well-tolerated”. In data set [12], the Burkitt lymphoma xenografts entry is recorded as “inhibits”. Further, the virus yield in the data set with HCMV [5] (50 μM, 96 h after infection, limit of detection) is listed as < 10^2 IU/ml. For the same compound, the pUL99 accumulation result with HCMV pUL99 (50 μM, data not shown) is given as “substantial block”.
